Laboratory results published in ChEMBL document CHEMBL5346962, “Discovery of Sulanemadlin (ALRN-6924), the First Cell-Permeating, Stabilized α-Helical Peptide in Clinical Development” (J Med Chem, 2023).
Active and inactive are the calls of the source. The rule behind the calls is not given here.

Assays:
[1] = Induction of cell cycle arrest in human CD34+ cells assessed as accumulation at S phase at 10 uM incubated for 24 hrs by flow cytometry (reference value: 27.5 +/- 5.8%); format: toxicity, cell-based; conditions: cd34-positive (myeloid/lymphoid) cell
Fibroblast [2] = test: Protection against chemotherapy-induced apoptosis in human fibroblast assessed as decrease in caspase-3/7 level preincubated for 16 hrs followed by paclitaxel addition measured after 32 hrs; format: functional, cell-based; conditions: dose 4.6-10 µM, time 48.0 hrs
Fibroblast [3] = test: Protection against chemotherapy-induced apoptosis in human fibroblast assessed as decrease in caspase-3/7 level preincubated for 16 hrs followed by docetaxel trihydrate addition measured after 32 hrs; format: functional, cell-based; conditions: dose 4.6-10 µM, time 48.0 hrs
BT-474 = test: […] chemotherapy-induced apoptosis in human BT-474 cells assessed as decrease in caspase-3/7 level at 4.6 to 10 uM preincubated for 16 hrs followed by doxorubicin addition measured after 32 hrs; format: functional, cell-based; conditions: dose 4.6-10 µM, time 48.0 hrs
Bone marrow cell [4] = test: Upregulation of Puma mRNA level in bone marrow cells of C57BL/6 mouse at 10 mg/kg, iv measured for 24 hrs by qRT-PCR analysis; format: functional, organism-based
Bone marrow cell [5] = test: Upregulation of Noxa mRNA level in bone marrow cells of C57BL/6 mouse at 10 mg/kg, iv measured for 24 hrs by qRT-PCR analysis; format: functional, organism-based
Bone marrow cell [6] = test: Upregulation of serum MIC-1 level […] of C57BL/6 mouse at 2.4 mg/kg, iv administered every 8 hrs measured for 24 hrs by ELISA method; format: functional, organism-based
Mus musculus = test: Protection against topotecan-induced epithelium hypertrophy in gastrointestinal tract of C57BL/6 mouse at 2.4 mg/kg administered on day 0 to 4 and co-administered 30 mins prior to topotecan on day 1 to 4 followed by topotecan administration on day 5 measured on day 9 by H&E staining based analysis; format: functional, organism-based; conditions: time 9.0 day
[7] = Clearance in mouse at 5 mg/kg by LC-MS/MS analysis; format: ADME, organism-based; conditions: in vivo
[8] = AUC (all) in cynomolgous monkey at 10 mg/kg by LC-MS/MS analysis; format: ADME, organism-based, Macaca fascicularis; parameters: dose 10 mg/kg; conditions: cynomolgus monkey, in vivo
[9] = Half life in cynomolgous monkey at 10 mg/kg by LC-MS/MS analysis; format: ADME, organism-based, Macaca fascicularis; conditions: cynomolgus monkey, in vivo
[10] = Plasma protein binding in rat at 2 to 50 uM; format: ADME, cell-free; conditions: dose 2-50 µM, read-out: PPB (converted)
[11] = Plasma protein binding in mouse at 250 uM; format: ADME, cell-free; conditions: read-out: PPB (converted)
[12] = Drug excretion in bile-duct cannulated rat assessed as ALRN-8714 metabolite elimination at 10 mg/kg, iv measured for 8 hrs by LC-MS/MS analysis; format: ADME, organism-based; conditions: in vivo

What does the source list for `CC(=O)N[C@@H](CC(C)C)C(=O)N[C@H](C(=O)N[C@@H](Cc1ccccc1)C(=O)N[C@]1(C)CCCCCC/C=C/CCC[C@@](C)(C(=O)N[C@@H](C)C(=O)N[C@@H](C)C(=O)N[C@@H](C)C(=O)N[C@@H](C)C(=O)N[C@@H](C)C(=O)N[C@H](C)C(N)=O)NC(=O)[C@H](CC(C)C)NC(=O)[C@H](CCC(N)=O)NC(=O)[C@H](C)NC(=O)[C@H](Cc2c[nH]c3ccccc23)NC(=O)[C@H](Cc2ccc(O)cc2)NC(=O)[C@H](CCC(=O)O)NC1=O)[C@@H](C)O`?
Activity [1]: 0.22%; Activity (Fibroblast [2]): Dose-Dependent Effect; Activity (Fibroblast [3]): Dose-Dependent Effect; Activity (BT-474): inactive; Activity (Bone marrow cell [4]): Active; Activity (Bone marrow cell [5]): Active; Activity (Bone marrow cell [6]): Active; Activity (Mus musculus): Active; clearance [7]: 0.183 mL/min/kg; AUC [8]: 1350 µg·h/mL; half-life [9]: 5.5 h; fraction unbound at up to 50 µM [10]: 0.08; fraction unbound at 250 µM [11]: 0.02; Drug excretion [12]: Active
